Measured values reported in ChEMBL document CHEMBL5233239, “Matrix metalloproteinase-9 (MMP-9) and its inhibitors in cancer: A minireview” (Eur J Med Chem, 2020).
Values belong to the molecule of their own block, whether it stands above or below them.

Experiments:
[1] = target: T1, 72 kDa type IV collagenase (Homo sapiens, UniProt P08253); assay: Inhibition of MMP-2 (unknown origin) by fluorimetric assay
Target sequence in this assay (P08253 whole entry): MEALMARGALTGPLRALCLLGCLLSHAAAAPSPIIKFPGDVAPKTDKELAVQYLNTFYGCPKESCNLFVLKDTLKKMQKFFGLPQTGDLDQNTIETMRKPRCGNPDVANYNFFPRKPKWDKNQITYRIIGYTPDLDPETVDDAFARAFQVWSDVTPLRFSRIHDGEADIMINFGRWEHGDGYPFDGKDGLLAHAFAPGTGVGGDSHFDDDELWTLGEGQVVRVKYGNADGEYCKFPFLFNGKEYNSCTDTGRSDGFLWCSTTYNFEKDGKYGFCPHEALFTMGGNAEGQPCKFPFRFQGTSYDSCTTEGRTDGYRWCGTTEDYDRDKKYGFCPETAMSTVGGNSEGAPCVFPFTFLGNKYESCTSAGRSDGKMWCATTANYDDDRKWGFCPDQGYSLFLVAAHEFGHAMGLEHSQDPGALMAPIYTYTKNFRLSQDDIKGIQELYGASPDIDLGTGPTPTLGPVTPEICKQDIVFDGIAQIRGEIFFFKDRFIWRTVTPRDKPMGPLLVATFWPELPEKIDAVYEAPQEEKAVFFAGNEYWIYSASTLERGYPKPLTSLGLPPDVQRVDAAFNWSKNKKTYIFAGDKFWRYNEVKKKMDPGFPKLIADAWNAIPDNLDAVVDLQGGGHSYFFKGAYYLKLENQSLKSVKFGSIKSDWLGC

[2] = target: T2, Matrix metalloproteinase-9 (Homo sapiens, UniProt P14780); assay: Inhibition of MMP-9 (unknown origin) by fluorimetric assay
T2 sequence (P14780 whole entry): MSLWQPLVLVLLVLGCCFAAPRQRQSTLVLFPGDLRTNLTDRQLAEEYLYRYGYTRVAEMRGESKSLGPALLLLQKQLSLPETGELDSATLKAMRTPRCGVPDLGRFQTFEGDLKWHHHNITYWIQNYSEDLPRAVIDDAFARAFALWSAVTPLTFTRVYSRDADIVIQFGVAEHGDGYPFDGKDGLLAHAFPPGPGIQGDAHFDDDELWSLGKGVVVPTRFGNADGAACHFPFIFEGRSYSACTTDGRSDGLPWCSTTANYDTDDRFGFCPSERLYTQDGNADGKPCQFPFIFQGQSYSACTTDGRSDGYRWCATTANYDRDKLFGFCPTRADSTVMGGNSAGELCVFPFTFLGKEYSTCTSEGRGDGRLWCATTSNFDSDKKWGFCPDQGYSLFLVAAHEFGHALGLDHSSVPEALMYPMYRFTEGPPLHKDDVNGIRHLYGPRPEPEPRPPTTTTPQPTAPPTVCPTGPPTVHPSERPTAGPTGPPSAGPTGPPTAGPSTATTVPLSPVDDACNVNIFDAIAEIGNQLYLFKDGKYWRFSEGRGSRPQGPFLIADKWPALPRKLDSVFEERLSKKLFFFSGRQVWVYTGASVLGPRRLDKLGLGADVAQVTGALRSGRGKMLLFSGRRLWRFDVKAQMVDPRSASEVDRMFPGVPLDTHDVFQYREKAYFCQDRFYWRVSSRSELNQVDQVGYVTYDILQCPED

[3] = target: T1, 72 kDa type IV collagenase; assay: Inhibition of human MMP-2
Target sequence in this assay (P08253 whole entry): as the sequence (P08253 whole entry) above

[4] = target: T2, Matrix metalloproteinase-9; assay: Inhibition of human MMP-9
Interstitial collagenase [5] = target: T3, Interstitial collagenase (Homo sapiens, UniProt P03956); assay: Inhibition of MMP-1 (unknown origin)
T3 sequence (P03956 whole entry): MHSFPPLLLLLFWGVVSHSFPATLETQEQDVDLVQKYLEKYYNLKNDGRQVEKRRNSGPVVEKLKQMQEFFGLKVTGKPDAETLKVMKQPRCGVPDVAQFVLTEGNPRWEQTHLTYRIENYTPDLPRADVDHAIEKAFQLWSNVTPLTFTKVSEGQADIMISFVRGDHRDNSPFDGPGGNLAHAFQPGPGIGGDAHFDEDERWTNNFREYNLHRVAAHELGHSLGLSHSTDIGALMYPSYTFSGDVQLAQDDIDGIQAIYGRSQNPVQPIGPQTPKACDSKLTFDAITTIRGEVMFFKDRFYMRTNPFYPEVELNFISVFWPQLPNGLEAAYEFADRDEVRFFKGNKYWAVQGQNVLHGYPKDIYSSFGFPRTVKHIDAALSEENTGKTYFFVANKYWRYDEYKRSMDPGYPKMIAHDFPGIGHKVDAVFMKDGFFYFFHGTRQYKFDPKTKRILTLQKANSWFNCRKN

Neutrophil collagenase [6] = target: T4, Neutrophil collagenase (Homo sapiens, UniProt P22894); assay: Inhibition of MMP-8 (unknown origin)
[7] = target: T2, Matrix metalloproteinase-9; assay: Inhibition of MMP-9 (unknown origin)
Matrilysin = target: T5, Matrilysin (Homo sapiens, UniProt P09237); assay: Inhibition of MMP-7 (unknown origin)
T5 sequence (P09237 whole entry): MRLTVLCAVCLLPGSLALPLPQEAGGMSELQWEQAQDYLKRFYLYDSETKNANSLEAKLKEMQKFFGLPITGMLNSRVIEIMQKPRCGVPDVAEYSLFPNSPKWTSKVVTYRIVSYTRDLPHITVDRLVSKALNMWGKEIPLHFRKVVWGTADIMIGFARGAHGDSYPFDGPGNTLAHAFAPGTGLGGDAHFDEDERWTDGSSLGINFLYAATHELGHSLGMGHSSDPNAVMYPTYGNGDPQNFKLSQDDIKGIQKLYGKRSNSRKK

[8] = target: T1, 72 kDa type IV collagenase
Target sequence in this assay (P08253 whole entry): as the sequence (P08253 whole entry) above

Stromelysin-1 [9] = target: T6, Stromelysin-1 (Homo sapiens, UniProt P08254); assay: Inhibition of human MMP3 using (7-methoxycoumarine-4-yl)-Arg-Pro-Lys-Pro-Tyr-Ala-Nva-Trp-Met-Lys(Dnp)-NH2 substrate by fluorimetric analysis
Target sequence in this assay (P08254 whole entry): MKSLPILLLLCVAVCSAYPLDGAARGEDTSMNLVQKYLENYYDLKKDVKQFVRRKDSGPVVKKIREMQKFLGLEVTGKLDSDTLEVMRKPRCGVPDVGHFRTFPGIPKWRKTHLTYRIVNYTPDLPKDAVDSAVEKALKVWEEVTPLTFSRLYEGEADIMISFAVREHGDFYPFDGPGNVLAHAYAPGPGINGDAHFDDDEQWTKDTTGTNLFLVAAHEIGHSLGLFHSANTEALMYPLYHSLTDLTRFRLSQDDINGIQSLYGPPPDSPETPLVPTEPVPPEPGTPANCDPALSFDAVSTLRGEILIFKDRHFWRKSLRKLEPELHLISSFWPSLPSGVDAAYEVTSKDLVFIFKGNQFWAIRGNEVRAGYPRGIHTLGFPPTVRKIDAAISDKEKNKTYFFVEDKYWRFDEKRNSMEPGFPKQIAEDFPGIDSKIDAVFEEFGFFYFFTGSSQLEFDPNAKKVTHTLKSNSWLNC

[10] = target: T1, 72 kDa type IV collagenase; assay: Inhibition of human MMP2 using Dnp-Pro-Cha-Gly-Cys(Me)-His-Ala-Lys(Nma)-NH2 substrate by fluorimetric analysis
Target sequence in this assay (P08253 whole entry): as the sequence (P08253 whole entry) above

[11] = target: T2, Matrix metalloproteinase-9; assay: Inhibition of human MMP9 using Dnp-Pro-Cha-Gly-Cys(Me)-His-Ala-Lys(Nma)-NH2 substrate by fluorimetric analysis
Collagenase 3 [12] = target: T7, Collagenase 3 (Homo sapiens, UniProt P45452); assay: Inhibition of human MMP13 using Dnp-Pro-Cha-Gly-Cys(Me)-His-Ala-Lys(Nma)-NH2 substrate by fluorimetric analysis
Interstitial collagenase [13] = target: T3, Interstitial collagenase; assay: Inhibition of human MMP1 using Dnp-Pro-Cha-Gly-Cys(Me)-His-Ala-Lys(Nma)-NH2 substrate by fluorimetric analysis
Collagenase 3 [14] = target: T7, Collagenase 3
Description: Inhibition of MMP-13 (unknown origin)

[15] = target: Disintegrin and metalloproteinase domain-containing protein 17 (Homo sapiens, UniProt P78536); assay: Inhibition of TACE (unknown origin)
Disintegrin and metalloproteinase domain-containing protein 17, sequence (P78536 whole entry, the tested form may be a part): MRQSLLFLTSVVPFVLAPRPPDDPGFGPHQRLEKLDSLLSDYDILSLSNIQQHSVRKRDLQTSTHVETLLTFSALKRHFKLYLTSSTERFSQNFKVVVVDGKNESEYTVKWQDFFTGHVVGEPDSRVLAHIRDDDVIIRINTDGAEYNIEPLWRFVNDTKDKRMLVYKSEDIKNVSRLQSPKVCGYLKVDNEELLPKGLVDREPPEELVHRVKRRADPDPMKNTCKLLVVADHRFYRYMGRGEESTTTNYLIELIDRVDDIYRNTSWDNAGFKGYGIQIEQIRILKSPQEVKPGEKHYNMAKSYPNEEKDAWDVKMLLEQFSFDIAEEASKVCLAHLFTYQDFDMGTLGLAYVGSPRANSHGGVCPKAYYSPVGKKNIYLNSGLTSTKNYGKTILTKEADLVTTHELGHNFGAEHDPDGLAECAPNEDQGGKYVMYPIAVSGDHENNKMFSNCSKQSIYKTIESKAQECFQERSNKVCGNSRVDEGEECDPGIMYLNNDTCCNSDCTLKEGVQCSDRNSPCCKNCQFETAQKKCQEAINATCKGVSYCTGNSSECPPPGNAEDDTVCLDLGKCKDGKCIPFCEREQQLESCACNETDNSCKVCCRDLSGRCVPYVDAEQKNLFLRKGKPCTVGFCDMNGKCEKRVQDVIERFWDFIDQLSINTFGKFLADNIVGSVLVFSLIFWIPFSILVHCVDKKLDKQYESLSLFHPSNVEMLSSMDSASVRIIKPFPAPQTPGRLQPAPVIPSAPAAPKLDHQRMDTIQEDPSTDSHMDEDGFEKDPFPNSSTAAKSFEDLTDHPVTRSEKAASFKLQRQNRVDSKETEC

[16] = target: T1, 72 kDa type IV collagenase; assay: Inhibition of MMP-2 (unknown origin) using Ac-PLG-[2-mercapto-4-methylpentanoyl]-LG-OC2H5) as substrate measured upto 20 mins by microplate reader analysis
Target sequence in this assay (P08253 whole entry): as the sequence (P08253 whole entry) above

[17] = target: T2, Matrix metalloproteinase-9; assay: Inhibition of MMP-9 (unknown origin) using Ac-PLG-[2-mercapto-4-methylpentanoyl]-LG-OC2H5) as substrate measured upto 20 mins by microplate reader analysis
Neutrophil collagenase [18] = target: T4, Neutrophil collagenase; assay: Inhibition of MMP-8 (unknown origin) at 20 uM by fluorometric assay
Target sequence in this assay (P22894 101-467 limits assumed): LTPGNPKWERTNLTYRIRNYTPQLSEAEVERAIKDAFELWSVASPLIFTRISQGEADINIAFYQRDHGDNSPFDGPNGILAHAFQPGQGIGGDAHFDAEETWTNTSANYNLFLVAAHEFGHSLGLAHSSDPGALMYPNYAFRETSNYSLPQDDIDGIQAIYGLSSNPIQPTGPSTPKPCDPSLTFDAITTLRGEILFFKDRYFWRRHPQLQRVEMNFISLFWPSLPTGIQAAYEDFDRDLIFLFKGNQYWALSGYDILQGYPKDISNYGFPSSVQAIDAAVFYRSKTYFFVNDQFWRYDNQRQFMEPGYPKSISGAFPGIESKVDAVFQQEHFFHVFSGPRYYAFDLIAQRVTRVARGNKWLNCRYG

[19] = target: Matrix metalloproteinase-14 (Homo sapiens) (UniProt P50281); assay: Inhibition of MMP-14 (unknown origin) at 20 uM by fluorometric assay
Stromelysin-1 [20] = target: T6, Stromelysin-1; assay: Inhibition of MMP-3 (unknown origin) at 20 uM by fluorometric assay
Target sequence in this assay (P08254 100-477 limits assumed): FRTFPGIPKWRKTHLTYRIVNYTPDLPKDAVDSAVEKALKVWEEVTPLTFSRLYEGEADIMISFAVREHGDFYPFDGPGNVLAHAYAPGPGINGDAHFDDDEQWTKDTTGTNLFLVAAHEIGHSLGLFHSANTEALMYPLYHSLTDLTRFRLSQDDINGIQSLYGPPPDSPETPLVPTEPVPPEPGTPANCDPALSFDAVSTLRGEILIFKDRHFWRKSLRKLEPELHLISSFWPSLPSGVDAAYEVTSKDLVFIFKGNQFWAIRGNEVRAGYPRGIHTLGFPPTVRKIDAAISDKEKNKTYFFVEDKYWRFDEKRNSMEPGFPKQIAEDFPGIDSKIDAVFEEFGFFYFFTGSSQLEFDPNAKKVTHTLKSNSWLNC

[21] = target: Macrophage metalloelastase (Homo sapiens) (UniProt P39900); assay: Inhibition of MMP-12 (unknown origin) at 20 uM by fluorometric assay
Macrophage metalloelastase (Homo sapiens), sequence (P39900 106-470 limits assumed): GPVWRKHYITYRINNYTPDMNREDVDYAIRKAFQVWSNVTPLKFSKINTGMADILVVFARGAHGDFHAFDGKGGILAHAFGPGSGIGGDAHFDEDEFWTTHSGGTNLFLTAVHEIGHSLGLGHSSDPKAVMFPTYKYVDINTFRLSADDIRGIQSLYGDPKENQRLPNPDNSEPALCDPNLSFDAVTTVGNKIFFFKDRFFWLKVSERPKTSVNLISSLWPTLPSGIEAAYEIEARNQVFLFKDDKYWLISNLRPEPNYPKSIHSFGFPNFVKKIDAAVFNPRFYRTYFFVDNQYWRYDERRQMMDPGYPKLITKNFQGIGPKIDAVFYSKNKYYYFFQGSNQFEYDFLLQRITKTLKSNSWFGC

[22] = target: T8, Matrilysin (Homo sapiens) (UniProt P09237); assay: Inhibition of MMP-7 (unknown origin) at 20 uM by fluorometric assay
T8 sequence (whole entry): T5 sequence (P09237 whole entry)

[23] = target: T1, 72 kDa type IV collagenase; assay: Inhibition of MMP-2 (unknown origin) at 20 uM by fluorometric assay
Target sequence in this assay (P08253 110-660 limits assumed): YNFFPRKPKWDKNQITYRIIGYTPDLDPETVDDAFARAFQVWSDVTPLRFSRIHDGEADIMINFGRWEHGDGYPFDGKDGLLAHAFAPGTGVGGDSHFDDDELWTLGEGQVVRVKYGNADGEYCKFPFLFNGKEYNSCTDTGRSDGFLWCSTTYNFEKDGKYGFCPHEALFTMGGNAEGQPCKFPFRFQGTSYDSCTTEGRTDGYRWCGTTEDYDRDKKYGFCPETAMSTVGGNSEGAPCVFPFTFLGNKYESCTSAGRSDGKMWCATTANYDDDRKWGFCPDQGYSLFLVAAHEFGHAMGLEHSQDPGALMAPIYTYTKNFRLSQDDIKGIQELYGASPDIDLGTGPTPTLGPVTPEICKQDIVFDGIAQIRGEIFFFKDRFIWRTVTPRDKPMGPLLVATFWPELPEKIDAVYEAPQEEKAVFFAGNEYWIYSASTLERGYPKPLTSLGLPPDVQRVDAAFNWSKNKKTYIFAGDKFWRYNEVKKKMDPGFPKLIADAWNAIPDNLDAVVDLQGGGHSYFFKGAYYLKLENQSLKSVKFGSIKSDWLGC

[24] = target: T2, Matrix metalloproteinase-9; assay: Inhibition of MMP-9 (unknown origin) at 20 uM by fluorometric assay
Interstitial collagenase [25] = target: T3, Interstitial collagenase; assay: Inhibition of human MMP1 using Dnp-Pro-Cha-Gly-Cys(ME)-His-Ala-Lys(Nma)-NH2 as substrate preincubated for 0.5 hrs followed by substrate addition and measured after 6 hrs by fluorimeter analysis
Stromelysin-1 [26] = target: T6, Stromelysin-1; assay: Inhibition of human MMP3 using (7-methoxycoumarine-4-yl)-Arg-Pro-Lys-Pro-Tyr-Ala-Nva-Trp-Met-Lys(Dnp)-NH2 as substrate preincubated for 0.5 hrs followed by substrate addition and measured after 6 hrs by fluorimeter analysis
Target sequence in this assay (P08254 whole entry): as the sequence (P08254 whole entry) above

Collagenase 3 [27] = target: T7, Collagenase 3; assay: Inhibition of human MMP13 using Dnp-Pro-Cha-Gly-Cys(ME)-His-Ala-Lys(Nma)-NH2 as substrate preincubated for 0.5 hrs followed by substrate addition and measured after 6 hrs by fluorimeter analysis
[28] = target: T2, Matrix metalloproteinase-9; assay: Inhibition of human MMP9 using Dnp-Pro-Cha-Gly-Cys(ME)-His-Ala-Lys(Nma)-NH2 as substrate preincubated for 0.5 hrs followed by substrate addition and measured after 6 hrs by fluorimeter analysis
[29] = target: T1, 72 kDa type IV collagenase; assay: Inhibition of human MMP2 using Dnp-Pro-Cha-Gly-Cys(ME)-His-Ala-Lys(Nma)-NH2 as substrate preincubated for 0.5 hrs followed by substrate addition and measured after 6 hrs by fluorimeter analysis
Target sequence in this assay (P08253 whole entry): as the sequence (P08253 whole entry) above

Interstitial collagenase [30] = target: T3, Interstitial collagenase; assay: Inhibition of MMP-1 (unknown origin) by fluorimetric assay

IC50 [1]: 0.36 nM
IC50 [2]: 0.092 nM
SMILES: O=CN(O)C(CS(=O)(=O)c1ccc(Oc2ccc(OC(F)(F)F)cc2)cc1)[C@@H](O)CO (stereo partly drawn)

IC50 [3]: 0.7 nM
IC50 [4]: 0.2 nM
SMILES: CCCN(C(CSC)C(=O)NO)S(=O)(=O)c1ccc(OC)cc1 (stereo not drawn)

IC50 (Interstitial collagenase [5]): 22.2 nM
IC50 (Neutrophil collagenase [6]): 6.4 nM
IC50 [7]: 6.8 nM
IC50 (Matrilysin): > 10000 nM
SMILES: COc1ccc(S(=O)(=O)N2CN(Cc3ccccc3)C(=O)CC2C(=O)NO)cc1 (stereo not drawn)

IC50 [7]: 1.06 nM
IC50 [8]: 0.32 nM
SMILES: CN(C)c1ccc(-c2cn(-c3ccc(S(=O)(=O)NC(Cc4ccccc4)C(=O)NO)cc3)nn2)cc1 (stereo not drawn)

IC50 (Stromelysin-1 [9]): 6.7 nM
IC50 [10]: 1.64 nM
IC50 [11]: 0.9 nM
IC50 (Collagenase 3 [12]): 5.5 nM
IC50 (Interstitial collagenase [13]): 198 nM
SMILES: COc1ccc(S(=O)(=O)N2CC(C)(C)C(CCSCc3ccccc3)C2C(=O)NO)cc1 (stereo not drawn)

IC50 (Interstitial collagenase [5]): 74 nM
IC50 (Collagenase 3 [14]): 39 nM
IC50 [15]: 633 nM
IC50 [7]: 2 nM
SMILES: COc1ccc(S(=O)(=O)N(c2c(C)cc(-c3cccc(C(F)(F)F)c3)cc2C(=O)NO)N(C)C)cc1

IC50 [16]: 0.5 nM
IC50 [17]: 0.8 nM
SMILES: O=C(NO)C1(S(=O)(=O)c2ccc(-n3cc(-c4ccc(-c5cncnc5)cc4)nn3)cc2)CCOCC1

IC50 (Collagenase 3 [14]): 16 nM
IC50 [7]: 3 nM
SMILES: CCCCOc1ccc(S(=O)(=O)C2(C(=O)NO)CCN(Cc3ccccc3)CC2)cc1

SMILES: FC(F)(F)c1ccc(N2CC2Cn2cc(CCCCCCc3cn(CC4CN4c4ccc(C(F)(F)F)cc4)nn3)nn2)cc1 (stereo not drawn)
inhibition (Neutrophil collagenase [18]): 34.9%
inhibition [19]: 22.3%
inhibition (Stromelysin-1 [20]): 27.1%
inhibition [21]: 26%
inhibition [22]: 27.5%
inhibition [23]: 80.5%
inhibition [24]: 29.6%

IC50 (Interstitial collagenase [25]): 50000 nM
IC50 (Stromelysin-1 [26]): 45 nM
IC50 (Collagenase 3 [27]): 129 nM
IC50 [28]: 13 nM
IC50 [29]: 73 nM
SMILES: O=C(O)[C@H]1[C@H](CN2C(=O)c3ccccc3C2=O)CC[C@@H]1SCc1ccc(-c2ccc(Cl)cc2)cc1

IC50 (Interstitial collagenase [30]): 82 nM
IC50 [1]: 0.86 nM
IC50 [2]: 0.34 nM
SMILES: CC1(C)NC(=O)N(C[C@H](CS(=O)(=O)c2ccc(-c3ccc(OC(F)(F)F)cc3)cc2)N(O)C=O)C1=O
